Seven compounds from US9468209B2, “Method for eradicating weeds with derivatives of 3-acetyl-5-sec-butyl-4-hydroxy-3-pyrrolin-2-one” (priority 2012, dated 2016) can be followed below.

Experiment [1] relates to fluorescence of chlorophyll. In words: Fluorescence of chlorophyll of treated Crofton weed leaves. The note with it: 50 μg/mL, strong light 12 hours. The class given is biochemical. A digest of the protocol:
(§1)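 Cleaned Crofton weed leaves had 50 μg/mL compound (methanol diluted in water) applied to the underside, with matching methanol–water control. Vacuum 15 min at 25° C, then 12 h strong light (400 μM m^−2 s^−1) before measuring Hill reaction, electron transfer and chlorophyll fluorescence; four leaves per treatment, tested three times.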

Another experiment relates to Hill reaction. In words: Hill reaction activity of treated Crofton weed leaves. The class given is biochemical. As to conditions: 50 μg/mL, strong light 12 hours. A digest of the protocol: as §1
For a further experiment, the system named is Crofton weed. In words: Needle puncture pathogenic test on slightly wounded leaf of Crofton weed. The class given is in vivo. As to conditions: Crofton weed leaf, 50 μg/mL, 25° C., natural light. The procedure, abridged: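 Compounds in a little methanol were diluted with water to 50 μg/mL (5–100 μg/g in a range test) and applied by needle to slightly wounded Crofton weed leaves. Leaves were kept at 25 °C under natural light with six or more replicates, against methanol/water controls. Lesion spot diameter was measured after 24 h.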

Another experiment concerns Conyza canademsis. The experiment is described as follows: Leaf piece damage test. It counts as in vivo. Also on record: key: 4: The leaf completely dead; 3: Two third of the leaf withered; 2: One half of the leaf withered; 1: Only edge of the leaf withered; 0: Not damage at all. As to conditions: 50 μg/mL, 4 days. The procedure, abridged: (§2)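 Test compounds were dissolved in a little methanol and diluted in distilled water to 50 μg/mL, with methanol-water and pure water as controls. Five 5 mm pieces cut from the second leaf were treated three times per treatment. Damage was scored after 4 days and converted to a damage index.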

For the next experiment, the system named is Eclipta prostrata. The experiment is described as follows: Leaf piece damage test. The class given is in vivo. Also on record: key: 4: The leaf completely dead; 3: Two third of the leaf withered; 2: One half of the leaf withered; 1: Only edge of the leaf withered; 0: Not damage at all. As to conditions: 50 μg/mL, 4 days. A digest of the protocol:
as §2

The next experiment relates to Humulus scandens. In words: Leaf piece damage test. The class given is in vivo. Details: key: 4: The leaf completely dead; 3: Two third of the leaf withered; 2: One half of the leaf withered; 1: Only edge of the leaf withered; 0: Not damage at all. As to conditions: 50 μg/mL, 4 days. A digest of the protocol: as §2
A further experiment concerns Perilla frutescens. The experiment is described as follows: Leaf piece damage test. The note with it: 50 μg/mL, 4 days. Also on record: key: 4: The leaf completely dead; 3: Two third of the leaf withered; 2: One half of the leaf withered; 1: Only edge of the leaf withered; 0: Not damage at all. The class given is in vivo. A digest of the protocol:
as §2

The test system of another experiment is Polygonum perfoliatum. The experiment is described as follows: Leaf piece damage test. It counts as in vivo. Details: key: 4: The leaf completely dead; 3: Two third of the leaf withered; 2: One half of the leaf withered; 1: Only edge of the leaf withered; 0: Not damage at all. The note with it: 50 μg/mL, 4 days. The procedure, abridged: as §2
The next experiment deals with Lamium amplexicaule. In words: Leaf piece damage test. The class given is in vivo. The note with it: 50 μg/mL, 4 days. Details: key: 4: The leaf completely dead; 3: Two third of the leaf withered; 2: One half of the leaf withered; 1: Only edge of the leaf withered; 0: Not damage at all. A digest of the protocol:
as §2

The next experiment has as its system Cyperus difformis. In words: Leaf piece damage test. The note with it: 50 μg/mL, 4 days. It counts as in vivo. Also on record: key: 4: The leaf completely dead; 3: Two third of the leaf withered; 2: One half of the leaf withered; 1: Only edge of the leaf withered; 0: Not damage at all. A digest of the protocol: as §2
Experiment [2] relates to Alligator weed (Alternanthera philoxeroides). The experiment is described as follows: Leaf piece damage test. The class given is in vivo. Details: key: 4: The leaf completely dead; 3: Two third of the leaf withered; 2: One half of the leaf withered; 1: Only edge of the leaf withered; 0: Not damage at all. The note with it: 50 μg/mL, 4 days. A digest of the protocol: as §2

Another experiment deals with Erigeron annuus. The experiment is described as follows: Leaf piece damage test. The class given is in vivo. Details: key: 4: The leaf completely dead; 3: Two third of the leaf withered; 2: One half of the leaf withered; 1: Only edge of the leaf withered; 0: Not damage at all. As to conditions: 50 μg/mL, 4 days. A digest of the protocol: as §2
The next experiment deals with Japanese alopecurus. The experiment is described as follows: Leaf piece damage test. It counts as in vivo. Details: key: 4: The leaf completely dead; 3: Two third of the leaf withered; 2: One half of the leaf withered; 1: Only edge of the leaf withered; 0: Not damage at all. As to conditions: 50 μg/mL, 4 days. A digest of the protocol: as §2
For a further experiment, the system named is Pharbitis nil. The experiment is described as follows: Leaf piece damage test. It counts as in vivo. As to conditions: 50 μg/mL, 4 days. Also on record: key: 4: The leaf completely dead; 3: Two third of the leaf withered; 2: One half of the leaf withered; 1: Only edge of the leaf withered; 0: Not damage at all. The procedure, abridged: as §2
The next experiment has as its system Keng stiffgrass. The experiment is described as follows: Leaf piece damage test. It counts as in vivo. Also on record: key: 4: The leaf completely dead; 3: Two third of the leaf withered; 2: One half of the leaf withered; 1: Only edge of the leaf withered; 0: Not damage at all. The note with it: 50 μg/mL, 4 days. A digest of the protocol:
as §2

In the next experiment the test system is Dichondra repens. In words: Leaf piece damage test. The class given is in vivo. Details: key: 4: The leaf completely dead; 3: Two third of the leaf withered; 2: One half of the leaf withered; 1: Only edge of the leaf withered; 0: Not damage at all. The note with it: 50 μg/mL, 4 days. A digest of the protocol: as §2

`CCCC(Cl)C1NC(=O)C(C(C)=O)=C1O` (stereo not drawn) [Compound 40] gave a Fv/Fm in experiment [1] of 0.82. In the experiment on Hill reaction, the “Activity of Hill Reaction” value was 46.20 uMO2/mgChlh. Besides, the “Time of Disease spot” value with Crofton weed came to 11.93 ± 0.66 h. The “Average diameter of spot after 24 h” value in the experiment with Crofton weed came to 8.10 ± 0.90 mm. Besides, the Damage level was determined as 3 with Conyza canademsis; 3 in the experiment on Eclipta prostrata; 3 in the experiment on Humulus scandens; 2 with Perilla frutescens; 3 in the experiment on Polygonum perfoliatum; 3 with Lamium amplexicaule. The Damage level stood at 3 in the experiment with Cyperus difformis; 3 in experiment [2]; 3 with Erigeron annuus; 3 with Japanese alopecurus; 2 in the experiment with Pharbitis nil; 3 in the experiment with Keng stiffgrass. For the same compound, the Damage level in the experiment on Dichondra repens came to 3.
For the compound `CCC(C)C1NC(=O)C(C(=O)CCc2cc(Cl)cc(Cl)c2)=C1O` (stereo not drawn) [Compound 48], the “Time of Disease spot” value in the experiment on Crofton weed is 13.5 ± 2.77 h. Also, in the experiment on Crofton weed, the “Average diameter of spot after 24 h” value came out at 4.33 ± 0.54 mm. In addition, the Damage level with Conyza canademsis stood at 4; with Eclipta prostrata, 4; with Humulus scandens, 3; in the experiment with Perilla frutescens it was 2; in the experiment with Polygonum perfoliatum, 3; in the experiment on Lamium amplexicaule it was 2. In addition, the Damage level worked out at 4 with Cyperus difformis; 4 in experiment [2]; 4 with Erigeron annuus; 4 in the experiment on Japanese alopecurus; 3 in the experiment on Pharbitis nil; 4 with Keng stiffgrass. This compound also yielded a Damage level in the experiment with Dichondra repens of 3.
For `CCCC(C#N)C1NC(=O)C(=C(C)O)C1=O` (stereo not drawn) [Compound 53], the Fv/Fm in experiment [1] was 0.79. The “Activity of Hill Reaction” value with Hill reaction was found to be 42.72 uMO2/mgChlh. Besides, the “Time of Disease spot” value with Crofton weed is listed as 12.90 ± 0.27 h. Further, the “Average diameter of spot after 24 h” value with Crofton weed is recorded as 7.334 ± 0.845 mm. In addition, the Damage level in the experiment on Conyza canademsis came out at 3; in the experiment on Eclipta prostrata it was 4; with Humulus scandens, 2; with Perilla frutescens, 2; in the experiment on Polygonum perfoliatum, 3; with Lamium amplexicaule it was 2. In addition, the Damage level with Cyperus difformis amounted to 3; in experiment [2], 3; with Erigeron annuus, 3; in the experiment on Japanese alopecurus, 3; with Pharbitis nil, 3; in the experiment with Keng stiffgrass, 4. The compound also showed a Damage level in the experiment on Dichondra repens of 2.
As for `CCCCC1NC(=O)C(C(C)=O)=C1O` (stereo not drawn) [Compound 14], the Fv/Fm in experiment [1] is 0.79. In addition, the “Activity of Hill Reaction” value in the experiment with Hill reaction is listed as 67.37 uMO2/mgChlh. In addition, the “Time of Disease spot” value with Crofton weed is 13.8 ± 0.54 h. Besides, the “Average diameter of spot after 24 h” value in the experiment with Crofton weed is reported as 6.37 ± 0.04 mm. In addition, the Damage level is on record as 3 with Conyza canademsis; 3 with Eclipta prostrata; 2 with Humulus scandens; 2 with Perilla frutescens; 2 in the experiment on Polygonum perfoliatum; 2 in the experiment on Lamium amplexicaule. Also, the Damage level in the experiment with Cyperus difformis worked out at 3; in experiment [2], 3; in the experiment with Erigeron annuus, 3; with Japanese alopecurus, 3; in the experiment with Pharbitis nil, 2; in the experiment with Keng stiffgrass, 3. The compound further came in with a Damage level in the experiment on Dichondra repens of 2.
With `CCC(C)C1NC(=O)C(C(=O)CCF)=C1O` (stereo not drawn) [Compound 44], the Fv/Fm in experiment [1] is 0.79. Further, in the experiment with Hill reaction, the “Activity of Hill Reaction” value was determined as 59.15 uMO2/mgChlh. Besides, the “Time of Disease spot” value in the experiment with Crofton weed was 12.0 ± 1.33 h. Besides, in the experiment with Crofton weed, the “Average diameter of spot after 24 h” value came out at 4.07 ± 0.51 mm. Also, the Damage level is reported as 4 with Conyza canademsis; 4 in the experiment on Eclipta prostrata; 2 in the experiment on Humulus scandens; 3 with Perilla frutescens; 3 in the experiment on Polygonum perfoliatum; 3 with Lamium amplexicaule. Also, the Damage level in the experiment with Cyperus difformis is listed as 3; in experiment [2], 4; in the experiment on Erigeron annuus, 4; with Japanese alopecurus, 4; in the experiment on Pharbitis nil, 3; in the experiment with Keng stiffgrass, 3. In addition, the Damage level with Dichondra repens worked out at 2.
With `CCCCCC1NC(=O)C(C(C)=O)=C1O` (stereo not drawn) [Compound 15], in experiment [1], the Fv/Fm is recorded as 0.78. Besides, in the experiment with Hill reaction, the “Activity of Hill Reaction” value is reported as 62.77 uMO2/mgChlh. For the same compound, the “Time of Disease spot” value in the experiment with Crofton weed amounted to 9.5 ± 1.26 h. In addition, in the experiment on Crofton weed, the “Average diameter of spot after 24 h” value worked out at 9.61 ± 1.20 mm. For the same compound, the Damage level stood at 3 in the experiment on Conyza canademsis; 4 in the experiment on Eclipta prostrata; 2 with Humulus scandens; 3 with Perilla frutescens; 2 with Polygonum perfoliatum; 3 in the experiment on Lamium amplexicaule. The Damage level with Cyperus difformis was found to be 3; in [2], 2; in the experiment on Erigeron annuus it was 4; in the experiment with Japanese alopecurus, 3; in the experiment with Pharbitis nil, 3; with Keng stiffgrass it was 3. The Damage level in the experiment with Dichondra repens was 2.
In [1], `CCCCCCC1NC(=O)C(C(C)=O)=C1O` (stereo not drawn) [Compound 16] came in with a Fv/Fm of 0.83. The “Activity of Hill Reaction” value with Hill reaction was determined as 61.43 uMO2/mgChlh. The “Time of Disease spot” value in the experiment on Crofton weed was 13.80 ± 0.54 h. The “Average diameter of spot after 24 h” value with Crofton weed is on record as 7.61 ± 0.11 mm. The Damage level with Conyza canademsis is recorded as 3; in the experiment on Eclipta prostrata, 3; with Humulus scandens, 3; with Perilla frutescens, 2; with Polygonum perfoliatum, 3; in the experiment with Lamium amplexicaule it was 2. Further, the Damage level with Cyperus difformis is reported as 3; in [2], 3; in the experiment with Erigeron annuus, 3; in the experiment with Japanese alopecurus, 3; in the experiment with Pharbitis nil, 2; in the experiment with Keng stiffgrass, 3. In addition, the Damage level with Dichondra repens is recorded as 3.
